Laboratory results taken from EPA's ToxRefDB 2.

How the values were obtained:
rat [1] = details: Subchronic oral toxicity in rodents, wistar, Feed, dose end: 3 month, group: systemic
dog [2] = details: Subchronic oral toxicity in nonrodent, beagle, Feed, dose end: 90 day, group: systemic, systemic / clinical chemistry / alkaline phosphatase (alp/alk) / alkaline phosphatase (alp/alk) + systemic / in life observation / body …
rat [3] = details: Prenatal developmental toxicity study, other, Oral, Gavage/Intubation, dose end: 15 GD
dog [4] = details: Chronic toxicity, beagle, Oral, Feed, dose end: 104 week, group: systemic
rat [5] = details: Combined chronic toxicity/carcinogenicity; other; Oral; Feed; dose end: 2 year; group: systemic; systemic / clinical chemistry / alanine aminotransferase (alt/sgpt) / alanine aminotransferase (alt/sgpt) + systemic / clinical chemistry / …
mouse [6] = details: Combined chronic toxicity/carcinogenicity; other; Oral; Feed; dose end: 24 month; group: systemic; systemic / clinical chemistry / alanine aminotransferase (alt/sgpt) / alanine aminotransferase (alt/sgpt) + systemic / clinical chemistry / …
rat [7] = details: Subchronic oral toxicity in rodents, sprague dawley, Feed, dose end: 13 week, group: systemic
mouse [8] = details: Carcinogenicity, cd1, Oral, Feed, dose end: 78 week, group: systemic
rat [9] = details: Subchronic oral toxicity in rodents, sprague dawley, Feed, dose end: 13 week, group: systemic; remark: listed apart in the source
dog [10] = details: Chronic toxicity, beagle, Oral, Feed, dose end: 12 month, group: systemic
rat [11] = details: Combined chronic toxicity/carcinogenicity, other, Oral, Feed, dose end: 24 month, group: systemic
rat [12] = details: Multigenerational reproductive toxicity study, sprague dawley, Oral, Feed, dose end: 2 generation
[13] = systemic / clinical chemistry / glutamate dehydrogenase / glutamate dehydrogenase
[14] = systemic / clinical chemistry / glutamate dehydrogenase / glutamate dehydrogenase + systemic / clinical chemistry / cholesterol / …
[15] = group: developmental, developmental / developmental malformation / bone / full supernumerary
[16] = group: developmental, developmental / developmental malformation / bone / full supernumerary + developmental / developmental malformation / kidney / dilated renal…
[17] = group: maternal, systemic / in life observation / body weight / body weight gain + systemic / in life observation / clinical signs / alopecia + systemic / in…
[18] = systemic / clinical chemistry / aminopyrine-n-demethylase / aminopyrine-n-demethylase
[19] = systemic / clinical chemistry / aminopyrine-n-demethylase / aminopyrine-n-demethylase + systemic / clinical chemistry / cytochrome p450, nos…
[20] = systemic / clinical chemistry / fatty acids / non-esterified (free) fatty acids + systemic / clinical chemistry / triglycerides / …
[21] = systemic / organ weight / liver / absolute + systemic / organ weight / liver / relative to body weight + systemic / pathology microscopic / …
[22] = systemic / pathology microscopic / kidney / mineralization
[23] = systemic / organ weight / liver / relative to body weight
[24] = systemic / pathology microscopic / liver / pigmentation
[25] = systemic / pathology microscopic / liver / pigmentation + systemic / pathology microscopic / liver / hypertrophy
[26] = systemic / organ weight / liver / absolute
[27] = group: offspring, systemic / in life observation / body weight / offspring (pup) weight
[28] = group: parental, systemic / in life observation / body weight / body weight

For `CC(C)(C)C(O)C(Oc1ccc(Cl)cc1)n1cncn1` (centres undefined) [Triadimenol], the LEL (rat [1]; [13]) was 30 mg/kg/day, the LOAEL (rat [1]; [13]) was 30 mg/kg/day and the NEL (rat [1]; [14]) was 7.5 mg/kg/day. For the same compound, the NOAEL (rat [1]; [14]) was 7.5 mg/kg/day, the LEL (dog [2]) was 44.2 mg/kg/day and the LOAEL (dog [2]) was 44.2 mg/kg/day. The NEL (dog [2]) was under 44.2 mg/kg/day, the NOAEL (dog [2]) was under 44.2 mg/kg/day and the LEL (rat [3]; [15]) was 60 mg/kg/day. It also gave an LOAEL (rat [3]; [15]) of 60 mg/kg/day, an NEL (rat [3]; [16]) of 25 mg/kg/day and an NOAEL (rat [3]; [16]) of 25 mg/kg/day. It also gave an LOAEL (rat [3]; group: maternal, systemic / in life observation / body weight / body weight gain) of 15 mg/kg/day, an NEL (rat [3]; [17]) of 5 mg/kg/day and an NOAEL (rat [3]; [17]) of 5 mg/kg/day. It also gave an LEL (rat [3]; group: maternal, systemic / in life observation / body weight / body weight gain + systemic / in life observation / food consumption / food consumption) of 15 mg/kg/day, an LEL (dog [4]; [18]) of 211 mg/kg/day and an LOAEL (dog [4]; [18]) of 211 mg/kg/day. The NEL (dog [4]; [19]) was 56 mg/kg/day, the NOAEL (dog [4]; [19]) was 56 mg/kg/day and the LEL (rat [5]) was 25 mg/kg/day. It also gave an LOAEL (rat [5]) of 25 mg/kg/day, an NEL (rat [5]) of 6.25 mg/kg/day and an NOAEL (rat [5]) of 6.25 mg/kg/day. For the same compound, the LEL (mouse [6]) was 71.4 mg/kg/day, the LOAEL (mouse [6]) was 71.4 mg/kg/day and the NEL (mouse [6]) was 17.9 mg/kg/day. For the same compound, the NOAEL (mouse [6]) was 17.9 mg/kg/day, the LOAEL (rat [7]; [20]) was 208 mg/kg/day and the NEL (rat [7]; [20]) was 8 mg/kg/day. It also gave an NOAEL (rat [7]; [20]) of 39.6 mg/kg/day and an LEL (rat [7]; [21]) of 39.6 mg/kg/day.
`CCCCC(CC)CN1C(=O)C2C3C=CC(C3)C2C1=O` (centres undefined) [MGK-264] gave an LOAEL (mouse [8]; [21]) of 396 mg/kg/day, an NOAEL (mouse [8]; [21]) of 49.5 mg/kg/day and an LEL (mouse [8]; [22]) of 49.5 mg/kg/day. It also gave an NEL (mouse [8]; [22]) of under 49.5 mg/kg/day, an LOAEL (rat [9]; systemic / organ weight / liver / absolute + systemic / organ weight / liver / relative to body weight) of 260 mg/kg/day and an NOAEL (rat [9]; systemic / organ weight / liver / absolute + systemic / organ weight / liver / relative to body weight + systemic / clinical chemistry / …) of 130 mg/kg/day. For the same compound, the LEL (rat [9]; [23]) was 140 mg/kg/day, the NEL (rat [9]; [23]) was under 140 mg/kg/day and the NEL (dog [10]; [24]) was 7.5 mg/kg/day. The NOAEL (dog [10]; [24]) was 7.5 mg/kg/day, the LEL (dog [10]; [25]) was 33.7 mg/kg/day and the LOAEL (dog [10]; [25]) was 33.7 mg/kg/day. For the same compound, the LEL (rat [11]; [26]) was 50 mg/kg/day, the NEL (rat [11]; [26]) was under 50 mg/kg/day and the NOAEL (rat [11]; systemic / pathology microscopic / liver / hypertrophy + systemic / pathology microscopic / liver / proliferation + systemic / in life …) was 50 mg/kg/day. The LOAEL (rat [11]; systemic / pathology microscopic / liver / hypertrophy + systemic / pathology microscopic / liver / proliferation + systemic / organ weight…) was 150 mg/kg/day, the LEL (rat [12]; [27]) was 61 mg/kg/day and the LOAEL (rat [12]; [27]) was 61 mg/kg/day. For the same compound, the NEL (rat [12]; [27]) was under 61 mg/kg/day, the NOAEL (rat [12]; [27]) was under 61 mg/kg/day and the LEL (rat [12]; [28]) was 61 mg/kg/day. For the same compound, the NEL (rat [12]; [28]) was under 61 mg/kg/day.
